Assay [1] concerns the target T1, PRMT1 (Homo sapiens, UniProt Q99873). Nature of the assay: SAHH-coupled fluorescence assay, PRMT1 inhibition. It is filed as biochemical. The note with it: for IC50: PRMT1 0.1 µM, n = 2, mean ± SD; for Ki: calculated as Ki, app = IC50/(1 + [S]/Km), read-out: Ki, app. The method, then:
A fluorescence-based SAHH-coupled assay was used to evaluate the IC50 values of inhibitors by monitoring the production of SAH from SAM after methylation. […] The fluorescence signal was monitored on a BMG CLARIOstar microplate reader with excitation at 400 nm and emission at 465 nm for 18 min. Data were processed using GraphPad Prism software 7.0. All experiments were performed in duplicate.
The fluorescence signal was monitored on a BMG CLARIOstar microplate reader with excitation at 400 nm and emission at 465 nm for 18 min. Data were processed using GraphPad Prism software 7.0. All experiments were performed in duplicate. […].

In the next assay the target is T2, SETD7 (Homo sapiens, UniProt Q8WTS6).
T2 construct: made in house
T2 sequence (Q8WTS6 1-366): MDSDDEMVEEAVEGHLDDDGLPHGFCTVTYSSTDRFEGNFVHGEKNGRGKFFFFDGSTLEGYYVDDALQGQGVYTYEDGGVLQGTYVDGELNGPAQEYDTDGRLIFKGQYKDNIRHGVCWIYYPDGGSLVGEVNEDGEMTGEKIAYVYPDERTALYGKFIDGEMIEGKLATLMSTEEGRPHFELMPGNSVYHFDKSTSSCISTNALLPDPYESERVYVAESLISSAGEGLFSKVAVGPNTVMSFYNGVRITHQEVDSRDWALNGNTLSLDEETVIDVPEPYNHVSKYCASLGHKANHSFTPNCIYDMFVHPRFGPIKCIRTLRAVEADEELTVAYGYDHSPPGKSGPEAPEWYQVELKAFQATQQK
Nature of the assay: Selectivity SAHH-coupled fluorescence assay, SETD7. It is filed as biochemical. The note with it: at 100 μM. From the text:
(§1) We chose the top four potent compounds (6b and 6l–n) to investigate their selectivities against several in-house methyltransferases including protein arginine methyltransferase TbPRMT7, two members of the protein lysine methyltransferase PKMT (G9a and SETD7), protein N-terminal methyltransferase 1 (NTMT1), and a small molecule methyltransferase nicotinamide N-methyltransferase (NNMT), all of which have a SAM binding site.
A fluorescence-based SAHH-coupled assay was applied to study the effect of the compound on methyltransferase activity of PRMT7, NTMT1, SETD7, G9a, NNMT, and SAHH. For PRMT7, the assay was performed in a final well volume of 100 μL: 25 mM Tris (pH = 7.5), 50 mM KCl, 0.01% Triton X-100, 5 μM SAHH, 0.2 μM PRMT7, 3 μM AdoMet, and 15 μM ThioGlo1. After incubation for 10 min with the inhibitor, reactions were initiated by the addition of 60 μM H4-21 peptide, and the reaction was monitored for 15 min. For NTMT1, the assay was performed in a final well volume of 100 μL: 25 mM Tris (pH = 7.5), 50 mM KCl, 0.01% Triton X-100, 5 μM SAHH, 0.1 μM NTMT1, 3 μM AdoMet, and 10 μM ThioGlo4. After incubation for 10 min with the inhibitor, reactions were initiated by the addition of 0.5 μM GPKRIA peptide, and the reaction was monitored for 15 min. For SETD7, the assay was performed in a final well volume of 100 μL: 25 mM potassium phosphate buffer (pH = 7.6), 0.01% Triton X-100, 5 μM SAHH, 1 μM SETD7, 2 μM AdoMet, and 10 μM ThioGlo1. After incubation for 10 min with the inhibitor, reactions were initiated by the addition of 90 μM H3-21 peptide, and the reaction was monitored for 15 min. For G9a, the assay was performed in a final well volume of 100 μL: 25 mM potassium phosphate buffer (pH = 7.6), 1 mM EDTA, 2 mM MgCl2, 0.01% Triton X-100, 5 μM SAHH, 0.1 μM His-G9a, 10 μM AdoMet, and 10 μM ThioGlo4. For NNMT, the assay was performed in a final well volume of 100 μL: 25 mM Tris (pH = 7.5), 50 mM KCl, 0.01% Triton X- 100, 5 μM SAHH, 0.1 μM NNMT, 10 μM AdoMet, and 10 μM ThioGlo1. After incubation for 10 min with the inhibitor, reactions were initiated by the addition of 10 μM nicotinamide, and the reaction was monitored for 18 min. The inhibitors were added at five concentrations: 100, 33.3, 11.1, 3.7, and 1.2 μM.

A further assay has as its target T3, TbPRMT7 (Trypanosoma brucei brucei, UniProt Q582G4).
T3 construct: made in house
Nature of the assay: Selectivity SAHH-coupled fluorescence assay, TbPRMT7. The note with it: at 11.1 μM. Format: biochemical.
Excerpt: as §1
A fluorescence-based SAHH-coupled assay was applied to study the effect of the compound on methyltransferase activity of PRMT7, NTMT1, SETD7, G9a, NNMT, and SAHH. For PRMT7, the assay was performed in a final well volume of 100 μL: 25 mM Tris (pH = 7.5), 50 mM KCl, 0.01% Triton X-100, 5 μM SAHH, 0.2 μM PRMT7, 3 μM AdoMet, and 15 μM ThioGlo1. After incubation for 10 min with the inhibitor, reactions were initiated by the addition of 60 μM H4-21 peptide, and the reaction was monitored for 15 min. […] After incubation for 10 min with the inhibitor, reactions were initiated by the addition of 0.5 μM GPKRIA peptide, and the reaction was monitored for 15 min. […] After incubation for 10 min with the inhibitor, reactions were initiated by the addition of 90 μM H3-21 peptide, and the reaction was monitored for 15 min. […] After incubation for 10 min with the inhibitor, reactions were initiated by the addition of 10 μM nicotinamide, and the reaction was monitored for 18 min. […]

Assay [2] deals with T1, PRMT1. The note with it: cited from earlier work.
The next assay deals with PRMT5/MEP50. More on the design: method as in doi:10.1158/1538-7445.AM2018-4859. The note with it: cited from earlier work.
Another assay deals with T4, PRMT4 (Homo sapiens, UniProt Q86X55).
T4 construct: purchased Reaction Biology
T4 sequence (Q86X55 1-608): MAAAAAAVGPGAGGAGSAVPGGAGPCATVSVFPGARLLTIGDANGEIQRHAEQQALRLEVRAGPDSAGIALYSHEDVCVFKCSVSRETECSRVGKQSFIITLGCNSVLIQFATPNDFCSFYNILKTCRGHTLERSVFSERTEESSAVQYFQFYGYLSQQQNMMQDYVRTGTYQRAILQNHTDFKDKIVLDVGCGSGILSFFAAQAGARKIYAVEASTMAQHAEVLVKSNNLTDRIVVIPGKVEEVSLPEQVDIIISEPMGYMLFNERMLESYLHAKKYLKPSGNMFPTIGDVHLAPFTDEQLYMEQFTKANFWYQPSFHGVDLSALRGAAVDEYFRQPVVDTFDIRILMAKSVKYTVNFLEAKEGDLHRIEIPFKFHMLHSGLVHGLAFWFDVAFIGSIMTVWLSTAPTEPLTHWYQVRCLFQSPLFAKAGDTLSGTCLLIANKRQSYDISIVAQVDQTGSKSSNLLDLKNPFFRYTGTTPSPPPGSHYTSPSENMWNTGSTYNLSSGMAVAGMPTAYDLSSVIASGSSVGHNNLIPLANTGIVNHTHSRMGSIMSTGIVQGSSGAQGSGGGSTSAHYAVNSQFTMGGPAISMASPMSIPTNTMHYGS
The following applies: cited from earlier work.

Setting [3] is: at Km of SAM (10 µM) and H4-21 peptide (5 µM).
Where [4] appears, read: substrate concentration at 4 Km (footnote a).

Like-named read-outs stand apart in the source and are kept apart here.

T1 sequence (Q99873 whole entry, species assumed): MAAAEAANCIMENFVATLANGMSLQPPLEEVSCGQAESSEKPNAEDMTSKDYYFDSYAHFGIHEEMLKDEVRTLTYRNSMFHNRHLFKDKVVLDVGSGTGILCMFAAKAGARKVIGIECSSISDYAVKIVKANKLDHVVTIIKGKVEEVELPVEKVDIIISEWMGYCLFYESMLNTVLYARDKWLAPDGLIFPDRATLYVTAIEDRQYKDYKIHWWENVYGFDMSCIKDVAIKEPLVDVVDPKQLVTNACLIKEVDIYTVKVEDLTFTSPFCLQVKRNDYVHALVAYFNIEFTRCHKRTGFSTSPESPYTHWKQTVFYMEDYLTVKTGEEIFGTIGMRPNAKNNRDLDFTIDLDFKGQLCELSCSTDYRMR
T3 sequence (Q582G4 whole entry): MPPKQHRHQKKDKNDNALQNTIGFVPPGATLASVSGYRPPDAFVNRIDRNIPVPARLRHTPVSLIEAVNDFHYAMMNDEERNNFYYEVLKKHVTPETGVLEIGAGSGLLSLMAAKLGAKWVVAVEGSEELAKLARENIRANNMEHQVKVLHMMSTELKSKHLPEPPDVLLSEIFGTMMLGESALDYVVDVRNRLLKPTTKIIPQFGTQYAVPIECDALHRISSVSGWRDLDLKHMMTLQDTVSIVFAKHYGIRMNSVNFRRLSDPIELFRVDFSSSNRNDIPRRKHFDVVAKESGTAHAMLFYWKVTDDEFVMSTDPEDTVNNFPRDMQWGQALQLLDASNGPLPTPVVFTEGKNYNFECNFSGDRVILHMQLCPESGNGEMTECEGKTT

On PRMT1 [1] (setting [3]), `CCNC(=N)NCCCSC[C@H]1O[C@@H](n2cnc3c(N)ncnc32)[C@H](O)[C@@H]1O` [Compound 6a, 1-(3-((((2S,3S,4R,5R)-5-(6-amino-9H-purin-9-yl)-3,4-dihydroxytetrahydrofuran-2-yl)methyl)thio)propyl)-3-ethylguanidine] came in with an IC50 of 620 ± 80 nM. Moreover, the Ki on PRMT1 [1] was 310 ± 40 nM.

In turn, `N=C(NCCCSC[C@H]1O[C@@H](n2cnc3c(N)ncnc32)[C@H](O)[C@@H]1O)NC1CCC1` [Compound 6b, 1-(3-((((2S,3S,4R,5R)-5-(6-amino-9H-purin-9-yl)-3,4-dihydroxytetrahydrofuran-2-yl)methyl)thio)propyl)-3-cyclobutylguanidine] gave an inhibition at 100 µM at SETD7 above 50%. The “inhibitory activity against PRMT7” value on TbPRMT7 is “no inhibitory activity”. The IC50 against PRMT1 [1] (setting [4]) was determined as 230 ± 20 nM. The Ki on PRMT1 [1] was 45 ± 5 nM.

With `N=C(NCCCSC[C@H]1O[C@@H](n2cnc3c(N)ncnc32)[C@H](O)[C@@H]1O)NC1CCCC1` [Compound 6c, 1-(3-((((2S,3S,4R,5R)-5-(6-amino-9H-purin-9-yl)-3,4-dihydroxytetrahydrofuran-2-yl)methyl)thio)propyl)-3-cyclopentylguanidine], the IC50 on PRMT1 [1] (setting [3]) worked out at 220 ± 16 nM. The Ki at PRMT1 [1] is 110 ± 8 nM.

Compound `N=C(NCCCSC[C@H]1O[C@@H](n2cnc3c(N)ncnc32)[C@H](O)[C@@H]1O)NC1CCCCC1` [Compound 6d, 1-(3-((((2S,3S,4R,5R)-5-(6-amino-9H-purin-9-yl)-3,4-dihydroxytetrahydrofuran-2-yl)methyl)thio)propyl)-3-cyclohexylguanidine] registered an IC50 against PRMT1 [1] (setting [3]) of 110 ± 48 nM. The Ki on PRMT1 [1] is 55 ± 24 nM.

On to `N=C(NCCCSC[C@H]1O[C@@H](n2cnc3c(N)ncnc32)[C@H](O)[C@@H]1O)NCC1CCCCC1` [Compound 6e, 1-(3-((((2S,3S,4R,5R)-5-(6-amino-9H-purin-9-yl)-3,4-dihydroxytetrahydrofuran-2-yl)methyl)thio)propyl)-3-(cyclohexylmethyl)guanidine], for which, on PRMT1 [1] (setting [3]), it took 120 ± 26 nM to reach half-maximal inhibition (IC50). Moreover, the Ki at PRMT1 [1] was 60 ± 13 nM.

Compound `N=C(NCCCSC[C@H]1O[C@@H](n2cnc3c(N)ncnc32)[C@H](O)[C@@H]1O)Nc1ccccc1` [Compound 6f, 1-(3-((((2S,3S,4R,5R)-5-(6-amino-9H-purin-9-yl)-3,4-dihydroxytetrahydrofuran-2-yl)methyl)thio)propyl)-3-phenylguanidine] displayed an IC50 at PRMT1 [1] (setting [3]) of 290 ± 10 nM. Besides, the Ki at PRMT1 [1] was 150 ± 5 nM. Also, the “fold reduction of PRMT1 inhibition compared to 6d” value at PRMT1 [1] (ratio of IC50 values) was “about 2.5 fold”.

Compound `N=C(NCCCSC[C@H]1O[C@@H](n2cnc3c(N)ncnc32)[C@H](O)[C@@H]1O)NCc1ccccc1` [Compound 6g, 1-(3-((((2S,3S,4R,5R)-5-(6-amino-9H-purin-9-yl)-3,4-dihydroxytetrahydrofuran-2-yl)methyl)thio)propyl)-3-benzylguanidine] returned a half-maximal inhibitory concentration (IC50) against PRMT1 [1] (setting [3]) of 720 ± 150 nM. Moreover, at PRMT1 [1], the Ki was 360 ± 75 nM.

Take `N=C(NCCCSC[C@H]1O[C@@H](n2cnc3c(N)ncnc32)[C@H](O)[C@@H]1O)NCCc1ccccc1` [Compound 6h, 1-(3-((((2S,3S,4R,5R)-5-(6-amino-9H-purin-9-yl)-3,4-dihydroxytetrahydrofuran-2-yl)methyl)thio)propyl)-3-phenethylguanidine]: the IC50 against PRMT1 [1] (setting [3]) turned out to be 210 ± 60 nM. In addition, the Ki on PRMT1 [1] was 110 ± 30 nM.

The compound `N=C(NCCCSC[C@H]1O[C@@H](n2cnc3c(N)ncnc32)[C@H](O)[C@@H]1O)NCCCc1ccccc1` [Compound 6i, 1-(3-((((2S,3S,4R,5R)-5-(6-amino-9H-purin-9-yl)-3,4-dihydroxytetrahydrofuran-2-yl)methyl)thio)propyl)-3-(3-phenylpropyl)guanidine] came in with an IC50 against PRMT1 [1] (setting [3]) of 330 ± 110 nM. Moreover, the Ki at PRMT1 [1] is 170 ± 55 nM.

Compound `N=C(NCCCSC[C@H]1O[C@@H](n2cnc3c(N)ncnc32)[C@H](O)[C@@H]1O)Nc1ccccc1[N+](=O)[O-]` [Compound 6j, 1-(3-((((2S,3S,4R,5R)-5-(6-amino-9H-purin-9-yl)-3,4-dihydroxytetrahydrofuran-2-yl)methyl)thio)propyl)-3-(2-nitrophenyl)guanidine] had an IC50 at PRMT1 [1] (setting [3]) of 210 ± 10 nM. Moreover, the Ki on PRMT1 [1] is 110 ± 5 nM.

For the compound `N=C(NCCCSC[C@H]1O[C@@H](n2cnc3c(N)ncnc32)[C@H](O)[C@@H]1O)Nc1ccc(Br)cc1` [Compound 6m, 1-(3-((((2S,3S,4R,5R)-5-(6-amino-9H-purin-9-yl)-3,4-dihydroxytetrahydrofuran-2-yl)methyl)thio)propyl)-3-(4-bromophenyl)guanidine], on SETD7, the inhibition at 100 µM is above 50%. Also, on PRMT1 [1] (setting [4]), the IC50 came to 290 ± 40 nM. In addition, the Ki at PRMT1 [1] was 58 ± 7 nM.

Regarding `N=C(NCCCSC[C@H]1O[C@@H](n2cnc3c(N)ncnc32)[C@H](O)[C@@H]1O)NCc1ccc(Br)cc1` [Compound 6n, 1-(3-((((2S,3S,4R,5R)-5-(6-amino-9H-purin-9-yl)-3,4-dihydroxytetrahydrofuran-2-yl)methyl)thio)propyl)-3-(4-bromobenzyl)guanidine], at SETD7, the inhibition at 100 µM was above 50%. The compound further had an IC50 on PRMT1 [1] (setting [4]) of 260 ± 70 nM. In addition, the Ki at PRMT1 [1] was 52 ± 14 nM.

For `N=C(N)NCCCCN(CCC(N)C(=O)O)C[C@H]1O[C@@H](n2cnc3c(N)ncnc32)[C@H](O)[C@@H]1O` (some centres unmarked) [JD-16], at PRMT1 [2], the IC50 is 3000 nM.

Consider `Nc1nc2cc(CC[C@H]3C[C@@H](n4ccc5c(N)ncnc54)[C@H](O)[C@@H]3O)ccc2cc1Br` [JNJ-64619178], for which the IC50 in the assay on PRMT5/MEP50 is […].

As for `CCCNC(CCC(N)C(=O)O)C[C@H]1O[C@@H](n2cnc3c(N)ncnc32)[C@H](O)[C@@H]1O` (some centres unmarked) [Pr-SNF], the IC50 on PRMT4 is 9500 nM.

(Values after article PMC8230315, “A Pan-Inhibitor for Protein Arginine Methyltransferase Family Enzymes” (Biomolecules, 2021).)
